From PubChem BioAssay AID256 (DTP/NCI, 2004)
Values joined by “and” are separate entries in the source; they are usually repeats but may differ in a detail not shown here. Equal values may be shown once. Inconclusive results and toxic doses are left out. Rule for the calls: active = survival T/C of 150% or more; inactive = T/C below 125% in these data.

System: CD2F1 mice, L1210 leukemia ip, survival T/C
Test: NCI In Vivo Anticancer Drug Screen. Data for tumor model L1210 Leukemia (intraperitoneal) in CD2F1 (CDF1) mice
Conditions: higher = longer survival
Procedure, shortened: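 Each value reflects a quotient of treated over vehicle control outcomes in mice with a transplanted tumor.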

[1] = endpoint: mean survival time, dose: 100.0 mg/kg/injection, schedule: Q04DX002 (ip), vehicle: saline with Tween-80
[2] = endpoint: mean survival time, dose: 200.0 mg/kg/injection, schedule: Q04DX002 (ip), vehicle: saline with Tween-80
[3] = endpoint: mean survival time, dose: 400.0 mg/kg/injection, schedule: Q04DX002 (ip), vehicle: saline with Tween-80
[4] = endpoint: mean survival time, dose: 100.0 mg/kg/injection, schedule: Q01DX009 (ip), vehicle: saline with Tween-80
[5] = endpoint: mean survival time, dose: 200.0 mg/kg/injection, schedule: Q01DX009 (ip), vehicle: saline with Tween-80
[6] = endpoint: mean survival time, dose: 400.0 mg/kg/injection, schedule: Q01DX009 (ip), vehicle: saline with Tween-80
[7] = endpoint: mean survival time, dose: 100.0 mg/kg/injection, schedule: Q04DX003 (ip), vehicle: saline with Tween-80
[8] = endpoint: mean survival time, dose: 200.0 mg/kg/injection, schedule: Q04DX003 (ip), vehicle: saline with Tween-80
[9] = endpoint: mean survival time, dose: 400.0 mg/kg/injection, schedule: Q04DX003 (ip), vehicle: saline with Tween-80
[10] = endpoint: mean survival time, dose: 75.0 mg/kg/injection, schedule: Q01DX001 (ip), vehicle: saline
[11] = endpoint: mean survival time, dose: 150.0 mg/kg/injection, schedule: Q01DX001 (ip), vehicle: saline
[12] = endpoint: mean survival time, dose: 300.0 mg/kg/injection, schedule: Q01DX001 (ip), vehicle: saline
[13] = endpoint: mean survival time, dose: 100.0 mg/kg/injection, schedule: Q01DX001 (ip), vehicle: saline with Tween-80
[14] = endpoint: mean survival time, dose: 200.0 mg/kg/injection, schedule: Q01DX001 (ip), vehicle: saline with Tween-80

Measured: T/C

CCN(CC)C(=S)Nc1ccc(Cl)cc1
inactive: [1] 102 % of control | [2] 102 % of control | [3] 102 % of control

NC1=NC(c2ccc(Cl)cc2)N(c2ccc(S(N)(=O)=O)cc2)C(N)=N1 (stereo not given)
inactive: endpoint: mean survival time, dose: 25.0 mg/kg/injection, schedule: Q01DX009 (ip), vehicle: saline with Tween-80 100 % of control | endpoint: mean survival time, dose: 50.0 mg/kg/injection, schedule: Q01DX009 (ip), vehicle: saline with Tween-80 100 % of control | [4] 96 % of control

CS(=O)(=O)SC(F)(F)F
inactive: endpoint: mean survival time, dose: 5.0 mg/kg/injection, schedule: Q01DX001 (ip), vehicle: saline 103 % of control

c1cnc2c(c1)Nc1cc3ccccc3cc1N2
inactive: endpoint: mean survival time, dose: 100.0 mg/kg/injection, schedule: Q04DX002 (ip), vehicle: saline + alcohol 100 % of control | endpoint: mean survival time, dose: 200.0 mg/kg/injection, schedule: Q04DX002 (ip), vehicle: saline + alcohol 89 % of control | endpoint: mean survival time, dose: 400.0 mg/kg/injection, schedule: Q04DX002 (ip), vehicle: saline + alcohol 89 % of control

OC(c1ccccc1)c1cc(-c2ccccc2)c(-c2ccccc2)cc1C(O)c1ccccc1 (stereo not given)
inactive: endpoint: mean survival time, dose: 12.5 mg/kg/injection, schedule: Q04DX003 (ip), vehicle: saline with Tween-80 102 % of control | endpoint: mean survival time, dose: 25.0 mg/kg/injection, schedule: Q04DX003 (ip), vehicle: saline with Tween-80 114 % of control

OC(COc1ccccc1)COc1ccccc1
inactive: [4] 98 % of control | [5] 93 % of control | [6] 89 % of control

CC1(C)OC2C(/C=N/O)OC(n3ccc(=O)[nH]c3=O)C2O1 (stereo not given)
inactive: endpoint: median survival time, dose: 23.13 mg/kg/injection, schedule: Q01DX005 (ip), vehicle: Klucel (hydroxypropylcellulose) (HPC) 107 % of control | endpoint: median survival time, dose: 46.25 mg/kg/injection, schedule: Q01DX005 (ip), vehicle: Klucel (hydroxypropylcellulose) (HPC) 102 % of control | endpoint: median survival time, dose: 92.5 mg/kg/injection, schedule: Q01DX005 (ip), vehicle: Klucel (hydroxypropylcellulose) (HPC) 102 % of control | endpoint: median survival time, dose: 185.0 mg/kg/injection, schedule: Q01DX005 (ip), vehicle: Klucel (hydroxypropylcellulose) (HPC) 108 % of control

O=C(O)CCCCc1ccccc1
inactive: [4] 93 % of control | [7] 106 % of control | [5] 98 % of control | [8] 92 % of control | [6] 102 % of control | [9] 106 % of control

COc1ccc(-c2nc(N)nc3c2CN(CCC(=O)O)C3=O)cc1
inactive: endpoint: mean survival time, dose: 100.0 mg/kg/injection, schedule: Q04DX003 (ip), vehicle: saline 102 % of control | endpoint: mean survival time, dose: 200.0 mg/kg/injection, schedule: Q04DX003 (ip), vehicle: saline 100 % of control | endpoint: mean survival time, dose: 400.0 mg/kg/injection, schedule: Q04DX003 (ip), vehicle: saline 102 % of control

COC(=O)C1=C(O)C(C(=O)OC)C2/C(=[N+](/[O-])O)c3c(cc([N+](=O)[O-])cc3[N+](=O)[O-])C1C2[N+](=O)[O-] (stereo not given)
inactive: [1] 94 % of control | [2] 105 % of control | [3] 90 % of control

Cn1cnc([N+](=O)[O-])c1Sc1ncnc2c1cnn2C1OC(CO)C(O)C1O (stereo not given)
inactive: endpoint: mean survival time, dose: 25.0 mg/kg/injection, schedule: Q01DX009 (ip), vehicle: other 95 % of control | endpoint: mean survival time, dose: 50.0 mg/kg/injection, schedule: Q01DX009 (ip), vehicle: other 114 % of control | endpoint: mean survival time, dose: 100.0 mg/kg/injection, schedule: Q01DX009 (ip), vehicle: other 97 % of control | endpoint: mean survival time, dose: 200.0 mg/kg/injection, schedule: Q01DX009 (ip), vehicle: other 108 % of control | endpoint: mean survival time, dose: 400.0 mg/kg/injection, schedule: Q01DX009 (ip), vehicle: other 117 % of control | endpoint: median survival time, dose: 10.0 mg/kg/injection, schedule: Q01DX005 (ip), vehicle: saline with Tween-80 96 % of control | endpoint: median survival time, dose: 20.0 mg/kg/injection, schedule: Q01DX005 (ip), vehicle: saline with Tween-80 103 % of control | endpoint: median survival time, dose: 40.0 mg/kg/injection, schedule: Q01DX005 (ip), vehicle: saline with Tween-80 103 % of control | endpoint: median survival time, dose: 80.0 mg/kg/injection, schedule: Q01DX005 (ip), vehicle: saline with Tween-80 102 % of control | endpoint: median survival time, dose: 160.0 mg/kg/injection, schedule: Q01DX005 (ip), vehicle: saline with Tween-80 91 % of control

CCOC(=O)C(=O)Nc1onc(C)c1NC(=O)C(=O)OCC
inactive: [7] 100 % of control | [8] 107 % of control | [9] 96 % of control

c1ccc(C2CC2c2ccccc2)cc1 (stereo not given)
inactive: [10] 100 % of control | [11] 96 % of control | [12] 98 % of control

O=C1C=CC(=Nc2ccccc2)O1
inactive: endpoint: mean survival time, dose: 2.5 mg/kg/injection, schedule: Q01DX009 (ip), vehicle: saline with Tween-80 96 % of control | endpoint: mean survival time, dose: 2.5 mg/kg/injection, schedule: Q04DX003 (ip), vehicle: saline with Tween-80 101 % of control | endpoint: mean survival time, dose: 5.0 mg/kg/injection, schedule: Q01DX009 (ip), vehicle: saline with Tween-80 102 % of control | endpoint: mean survival time, dose: 5.0 mg/kg/injection, schedule: Q04DX003 (ip), vehicle: saline with Tween-80 101 % of control | endpoint: mean survival time, dose: 10.0 mg/kg/injection, schedule: Q01DX009 (ip), vehicle: saline with Tween-80 93 % of control | endpoint: mean survival time, dose: 10.0 mg/kg/injection, schedule: Q04DX003 (ip), vehicle: saline with Tween-80 98 % of control

O=S(=O)(Nc1ccc(Br)cc1)c1ccc(Cl)c(Cl)c1
inactive: [1] 91 % of control | [2] 88 % of control | [3] 88 % of control

Cc1c2cnccc2c(C)c2c1c1ccccc1n2CCNCc1ccccc1
inactive: [7] 105 % of control | [8] 107 % of control

O=C(O)COc1ccc(Cl)cc1Cl
inactive: endpoint: mean survival time, dose: 100.0 mg/kg/injection, schedule: Q04DX003 (ip), vehicle: saline sonified 95 % of control | endpoint: mean survival time, dose: 200.0 mg/kg/injection, schedule: Q04DX003 (ip), vehicle: saline sonified 92 % of control | endpoint: mean survival time, dose: 400.0 mg/kg/injection, schedule: Q04DX003 (ip), vehicle: saline sonified 95 % of control

Cc1nc2c(N)cc(Cl)cc2[nH]1
inactive: endpoint: median survival time, dose: 25.0 mg/kg/injection, schedule: Q01DX005 (ip), vehicle: saline with Tween-80 101 % of control | endpoint: median survival time, dose: 50.0 mg/kg/injection, schedule: Q01DX005 (ip), vehicle: saline with Tween-80 101 % of control | endpoint: median survival time, dose: 100.0 mg/kg/injection, schedule: Q01DX005 (ip), vehicle: saline with Tween-80 103 % of control

O=NN(c1ccccc1)c1ccc([N+](=O)[O-])cc1
inactive: [4] 95 % of control | [7] 92 % of control | [5] 90 % of control | [8] 97 % of control | [9] 98 % of control

CC(=O)N(C)NC(=O)c1ccccn1
inactive: endpoint: mean survival time, dose: 50.0 mg/kg/injection, schedule: Q01DX001 (ip), vehicle: water 106 % of control | endpoint: mean survival time, dose: 100.0 mg/kg/injection, schedule: Q01DX001 (ip), vehicle: water 103 % of control | endpoint: mean survival time, dose: 200.0 mg/kg/injection, schedule: Q01DX001 (ip), vehicle: water 102 % of control | endpoint: mean survival time, dose: 400.0 mg/kg/injection, schedule: Q01DX001 (ip), vehicle: water 103 % of control

FC(F)(F)C(Cl)(c1ccc(Cl)cc1)c1ccc(Cl)cc1
inactive: endpoint: mean survival time, dose: 50.0 mg/kg/injection, schedule: Q04DX003 (sc), vehicle: olive oil, sesame oil, peanut oil 101 % of control | endpoint: mean survival time, dose: 100.0 mg/kg/injection, schedule: Q04DX003 (sc), vehicle: olive oil, sesame oil, peanut oil 108 % of control | endpoint: mean survival time, dose: 200.0 mg/kg/injection, schedule: Q04DX003 (sc), vehicle: olive oil, sesame oil, peanut oil 97 % of control | endpoint: mean survival time, dose: 400.0 mg/kg/injection, schedule: Q04DX003 (sc), vehicle: olive oil, sesame oil, peanut oil 101 % of control

CCC(CC)CN1CCSC1=S
inactive: [4] 101 % of control | [5] 101 % of control | [6] 96 % of control

COc1ccc(NC(=O)NCCCl)cc1
inactive: [13] 90 % of control | [14] 94 % of control

O=C1CCCC2c3ccccc3NC12 (stereo not given)
inactive: endpoint: mean survival time, dose: 100.0 mg/kg/injection, schedule: Q01DX001 (ip), vehicle: saline 98 % of control | endpoint: mean survival time, dose: 200.0 mg/kg/injection, schedule: Q01DX001 (ip), vehicle: saline 102 % of control | endpoint: mean survival time, dose: 400.0 mg/kg/injection, schedule: Q01DX001 (ip), vehicle: saline 101 % of control

O=C(NC(=S)Nc1ccc(CCO)cc1)c1cccc(Br)c1
inactive: [13] 104 % of control | [4] 97 % of control and 98 % of control | [1] 88 % of control and 101 % of control | [7] 100 % of control | [14] 98 % of control | [5] 101 % of control and 108 % of control | [2] 91 % of control and 92 % of control | [8] 100 % of control | endpoint: mean survival time, dose: 400.0 mg/kg/injection, schedule: Q01DX001 (ip), vehicle: saline with Tween-80 104 % of control | [6] 86 % of control and 106 % of control | [3] 95 % of control | [9] 93 % of control

COc1ccc(CCN)cc1O
inactive: [10] 98 % of control | [11] 98 % of control | [12] 98 % of control
